Tests used:
[1] = tested on: mouse hyperglycemia induced by alloxan; test: Effects of Sequoyitol on mouse hyperglycemia induced by alloxan; type: in vivo, Kunming mice
Protocol: 1. Experimental Methods^[1,2] • Among 60 mice, 10 mice were randomly selected as normal group, and the residual mice were administrated with 65 mg/kg alloxan by caudal vein injection, modeled according to the method of documents, and divided into 5 groups according to blood-sugar values, wherein 4 groups were perorally administrated with 25, 50 and 100 mg/kg of Sequoyitol and 75 mg/kg of phenformine according to 0.1 ml/10 g of body weight, respectively, and the normal group and modeling group were administrated with the same volum of distilled water, separately. These administrations were conducted for continuous 7 days. The blood-sugar levels were detected by glucose oxidase method. The pancreatic glands of the mice were soaked in 10% formalin, embedded with paraffin, sliced, and dyed with HE dye.

[2] = tested on: rat hyperglycemia induced by alloxan; test: Effect of Sequoyitol on rat hyperglycemia induced by alloxan; type: in vivo, SD rats
Protocol: 1. Experimental Methods^[5,6] • 5 Rats were randomly selected as normal group, the other 55 rats were fasted for 14-16 hours, administrated with 30 mg/kg of Pentobarbital by intra-abdominal injection. After paralyzed, the rats were administrated with 48 mg/kg of alloxan by vena femoralis injection, modeled according to methods of documents, and divided into 5 groups according to blood-sugar level, wherein each group had 11 rats, and 4 groups were orally administrated with 25, 50 and 100 mg/kg of Sequoyitol and 75 mg/kg of phenformine according to 1 ml/100 g of body weight, respectively, and the normal group and modeling group were administrated with the same volum of distilled water. These administrations were conducted for continuous 18 days. The fasting blood-sugar levels of the rats were separately measured at 6th and 12th day after the administration. At the 18th day, blood was collected from arteria femoralis, and the blood sugar level, insulin level, cholesterol content, triglyceride content, malonaldehyde content, and hepatocuprein activity of serum were measured; liver tissue was homogenated, and the malonaldehyde content, and hepatocuprein activity of liver tissue were measured; and pancreatic gland was soaked in 10% formalin, embedded with paraffin, sliced, and dyed with HE.

[3] = tested on: normal mice; test: Test of acute toxicity by intravenous administration; type: in vivo; conditions: 5.04 g/kg intravenous injection
Text: 1) Experimental Method • 20 Normal mice (half male and half female) were administrated with 5.04 g/kg Sequoyitol (which reached the maximum concentration and the maximum intravenous administration volume) by intravenous injection. The animals' responses were observed. The mice were executed after 14 days, and their organs were macroscopically observed.

[4] = 50 and 100 mg/kg Sequoyitol groups, oral 18 days
[5] = Sequoyitol 50 mg/kg oral 18 days
[6] = Sequoyitol 100 mg/kg oral 18 days

COC1C(O)C(O)C(O)C(O)C1O (stereo not shown) [Sequoyitol, 5-O-methyl-myo-inositol]
alloxan-induced hyperglycemia compared to the control group ([1]; Sequoyitol 25 mg/kg p.o. 7 days): alleviated | blood-sugar level decreased compared to the control group ([1]; Sequoyitol 50 mg/kg p.o. 7 days): 195.2 mg/dL | blood-sugar level decreased compared to the control group ([1]; Sequoyitol 100 mg/kg p.o. 7 days): 306.8 mg/dL | number of pancreatic islands and number of islet cells (histopathologic examination) compared to the model group ([1]; Sequoyitol groups (25, 50, 100 mg/kg p.o. 7 days)): increased significantly | hyalinization of interstitial small vessels (histopathologic examination) [2, 4]: alleviated | inflammatory cell infiltration (histopathologic examination) [2, 4]: reduced | body weight of diabetes rats compared to the control group ([2]; 50 and 100 mg/kg Sequoyitol groups, oral, since the 15th day (increased at the 13th day)): significantly increased | serum insulin level increased compared to the control group ([2]; Sequoyitol 25 mg/kg oral 18 days): 1.01 μlU/ml | alloxan-induced hyperglycemia compared to the control group ([2]; Sequoyitol 25 mg/kg oral, 12th day): significantly alleviated | blood-sugar level decreased compared to the control group ([2]; Sequoyitol 25 mg/kg oral, 18th day): 194.4 mg/dL | body weight of diabetes rats compared to the control group ([2]; Sequoyitol 25 mg/kg oral, at the 17th day (increased at the 15th day)): significantly increased | content of cholesterol in serum decreased compared to the control group [2, 5]: 22.2 mg/dL | content of triglyceride in serum decreased compared to the control group [2, 5]: 15.7 mg/dL | serum insulin level increased compared to the control group [2, 5]: 1.45 μl U/ml | blood-sugar level decreased compared to the control group ([2]; Sequoyitol 50 mg/kg oral, 6th day): 129.1 mg/dL | blood-sugar level decreased compared to the control group ([2]; Sequoyitol 50 mg/kg oral, 12th day): 200.7 mg/dL | blood-sugar level decreased compared to the control group ([2]; Sequoyitol 50 mg/kg oral, 18th day): 223.1 mg/dL | activity of hepatocuprein in liver tissue increased compared to the control group [2, 6]: 18.3 NU/mg prot | activity of hepatocuprein in serum increased compared to the control group [2, 6]: 55.0 NU/ml | content of malonaldehyde in liver tissue decreased compared to the control group [2, 6]: 4.29 nmol/mg prot | content of malonaldehyde in serum decreased compared to the control group [2, 6]: 4.13 nmol/dL | serum insulin level increased compared to the control group [2, 6]: 3.36 μlU/ml | blood-sugar level decreased compared to the control group ([2]; Sequoyitol 100 mg/kg oral, 6th day): 120 mg/dL | blood-sugar level decreased compared to the control group ([2]; Sequoyitol 100 mg/kg oral, 12th day): 218.2 mg/dL | blood-sugar level decreased compared to the control group ([2]; Sequoyitol 100 mg/kg oral, 18th day): 240.3 mg/dL | number of pancreatic islands and number of cells in pancreatic islands (histopathologic examination) compared to the model group ([2]; Sequoyitol groups (25, 50, 100 mg/kg oral 18 days)): increased significantly | main organs under macroscopic observation ([3]; executed after 14 days): free of abnormality | animals' responses after intravenous injection ([3]; observed 14 days): better health status, gloss fur, bright eyes, and good rang of motion

Reference: patent publication US20060135624A1, “Natural compound useful for treating diabetes, its preparation and use” (JINGYU LIANG ET AL, priority 2002, published 2006)
